According to EP4603105A1, “PHARMACEUTICAL COMPOSITION CONTAINING CYCLIC COMPOUND HAVING SELECTIVE KRAS INHIBITORY EFFECT AGAINST HRAS AND NRAS” (CHUGAI SEIYAKU KABUSHIKI KAISHA, priority 2022, dated 2024):
Where a SMILES comes first, the peptide text is derived from it. Bridges are numbered along the chain shown (N, C = ends). [ ]: non-standard residue; d: D form. The star is where a group is joined. hPhe(3,5-F2-4-CF3) = N[C@@H](CCc1cc(F)c(C(F)(F)F)c(F)c1)C(=O)O; hPhe(3-Cl-4-CF3) = N[C@@H](CCc1ccc(C(F)(F)F)c(Cl)c1)C(=O)O; NPrPhe(4-CF3) = CCCN[C@@H](Cc1ccc(C(F)(F)F)cc1)C(=O)O; NMePhe(4-Me) = CN[C@@H](Cc1ccc(C)cc1)C(=O)O; NMeGly(cPent) = CN[C@H](C(=O)O)C1CCCC1; αMeCha = C[C@](N)(CC1CCCCC1)C(=O)O; Hyp = O=C(O)[C@@H]1C[C@@H](O)CN1; NMeD = CN[C@@H](CC(=O)O)C(=O)O; NMeL = CN[C@@H](CC(C)C)C(=O)O; Morpholide = C1CN(*)CCO1; Ac5c = NC1(C(=O)O)CCCC1; Aze = O=C(O)[C@@H]1CCN1; NEtG = CCNCC(=O)O; Sar = CNCC(=O)O

How the values were obtained:
[1] = test system: human lung cancer strain NCI-H441; format: cell-based
Procedure, shortened: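 Proliferation was scored by […] measured after the reagent was added to cultures kept at 37°C in 5% carbon dioxide.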

[2] = target: GDP-bound NRAS wild-type protein (Homo sapiens, UniProt P01111); assay: Binding to NRAS by surface plasmon resonance (SPR), KD and KD ratio to KRAS
GDP-bound NRAS wild-type protein, sequence (P01111 whole entry): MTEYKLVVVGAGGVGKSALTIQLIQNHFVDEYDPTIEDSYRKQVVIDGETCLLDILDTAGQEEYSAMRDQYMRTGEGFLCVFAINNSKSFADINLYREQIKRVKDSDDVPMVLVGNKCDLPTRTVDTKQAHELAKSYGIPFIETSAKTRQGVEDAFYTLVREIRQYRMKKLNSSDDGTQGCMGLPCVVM
Procedure, shortened: (§1)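 Single-cycle kinetics on GDP-loaded biotin-Avi RAS captured to ~100–300 RU; 75 s ascending injections, 100 µL/min, 30°C. HBS pH 7.4 + 10 mM MgCl2/10 µM GDP/4% DMSO. 1:1 fit, KD.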

HRAS wild-type protein = HRAS wild-type protein (Homo sapiens, UniProt P01112); assay: Binding to HRAS by surface plasmon resonance (SPR), KD and KD ratio to KRAS
HRAS wild-type protein, sequence (P01112 whole entry): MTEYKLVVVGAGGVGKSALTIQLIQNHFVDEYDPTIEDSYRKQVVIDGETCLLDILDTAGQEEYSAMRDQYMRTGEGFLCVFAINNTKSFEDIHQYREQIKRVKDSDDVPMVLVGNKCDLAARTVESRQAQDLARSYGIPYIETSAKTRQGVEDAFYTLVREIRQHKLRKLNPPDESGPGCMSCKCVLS
Procedure, shortened: as §1

[3] = ratio of KD for GDP-bound NRAS wild-type protein to KD for KRAS
[4] = ratio of KD for HRAS wild-type protein to KD for KRAS
[5] = ratio of the KD value with respect to GDP-bound NRAS wild-type protein to the KD value with respect to KRAS
[6] = ratio of the KD value with respect to HRAS wild-type protein to the KD value with respect to KRAS
[7] = ratio of KD value for GDP-bound NRAS wild-type protein to KD value for KRAS (SPR)
[8] = ratio of KD value for HRAS wild-type protein to KD value for KRAS (SPR)

SMILES | IC50 [1] | NRAS /KRAS [2, 3] | HRAS /KRAS (HRAS wild-type protein; [4]) | NRAS /KRAS [2, 5] | HRAS /KRAS (HRAS wild-type protein; [6]) | further results
CCO[C@@H]1C[C@H]2C(=O)NC3(CCC3)C(=O)N(C)[C@@H](C3CCCC3)C(=O)N(C)[C@H](C(=O)N3CCCC3)CC(=O)N(C)[C@@H](CC)C(=O)N[C@@H]([C@@H](C)CC)C(=O)N(C)CC(=O)N(C)[C@H]3C/C=C\CCN(C3=O)[C@@H](Cc3ccc(C(F)(F)F)cc3)C(=O)N(C)CC(=O)N[C@@H](CCc3cc(F)c(C(F)(F)F)c(F)c3)C(=O)N2C1 [PP1090] | 20.9 nM | AA (a compound having 20 or more is denoted as AA) | A (a compound having 10 or more and less than 20 is denoted as A) |  |  | 
CC[C@H](C)[C@@H]1NC(=O)[C@H](CC(C)C)N(C)C(=O)C[C@@H](C(=O)N2CCOCC2)N(C)C(=O)[C@H](C2CCCC2)N(C)C(=O)C2(CCCC2)NC(=O)[C@@H]2CCCN2C(=O)[C@H](CCc2ccc(C(F)(F)F)c(Cl)c2)NC(=O)CN(C)C(=O)[C@H](Cc2ccc(OC)cc2)N2CCCC[C@@H](C2=O)N(C)C(=O)CN(C)C1=O [PP0534] | 16.7 nM |  |  | B (a compound having 3 or more and less than 10 is denoted as B) | B (a compound having 3 or more and less than 10 is denoted as B) | 
CCO[C@@H]1C[C@H]2C(=O)NC3(CCC3)C(=O)N(C)[C@@H](C3CCCC3)C(=O)N(C)[C@H](C(=O)N(C)CC)CC(=O)N(C)[C@@H](C3CC3)C(=O)N[C@@H]([C@@H](C)CC)C(=O)N(C)CC(=O)N(C)[C@H]3C/C=C\CCN(C3=O)[C@@H](Cc3ccc(C(F)(F)F)cc3)C(=O)N(C)CC(=O)N[C@@H](CCc3ccc(C(F)(F)F)c(OC)c3)C(=O)N2C1 [PP2021] | 4.9 nM |  |  | A (a compound having 10 or more and less than 20 is denoted as A) | B (a compound having 3 or more and less than 10 is denoted as B) | 
CCCOC[C@H]1C(=O)N[C@@H]([C@@H](C)CC)C(=O)N(C)CC(=O)N(C)[C@H]2C/C=C\CCN(C2=O)[C@@H](Cc2ccc(C(F)(F)F)cc2)C(=O)N(C)CC(=O)N[C@@H](CCc2cc(F)c(C(F)(F)F)c(F)c2)C(=O)N2C[C@H](OCC)C[C@H]2C(=O)NC2(CC(F)(F)C2)C(=O)N(C)[C@@H](C2CCCC2)C(=O)N(C)[C@H](C(=O)N(C)CCC)CC(=O)N1C [PP1744] | 5.3 nM |  |  |  |  | NRAS /KRAS [2, 7]: A (a compound having 10 or more and less than 20 is denoted as A); HRAS /KRAS (HRAS wild-type protein; [8]): A (a compound having 10 or more and less than 20 is denoted as A)
CCO[C@@H]1C[C@H]2C(=O)NC3(CCCC3)C(=O)N(C)[C@@H](C3CCCC3)C(=O)N(C)[C@H](C(=O)N(C)C)CC(=O)N(C)[C@@H](CC(C)C)C(=O)N[C@@H]([C@@H](C)CC)C(=O)N(C)CC(=O)N(C)[C@H]3C/C=C\CCN(C3=O)[C@@H](Cc3ccc(C(F)(F)F)cc3)C(=O)N(C)CC(=O)N[C@@H](CCc3ccc(C(F)(F)F)c(Cl)c3)C(=O)N2C1 [PP2838] | 7.9 nM | AA (a compound having 20 or more is denoted as AA) | A (a compound having 10 or more and less than 20 is denoted as A) |  |  | 
CCCN1C(=O)CN(C)C(=O)CN(CC)C(=O)[C@H]([C@@H](C)CC)NC(=O)[C@H](CC(C)C)N(C)C(=O)C[C@@H](C(=O)N(C)C)N(C)C(=O)[C@H](C2CCCC2)N(C)C(=O)C2(CCCC2)NC(=O)[C@@H]2C[C@@H](OCC)CN2C(=O)[C@H](CCc2ccc(C(F)(F)F)c(Cl)c2)NC(=O)CN(C)C(=O)[C@@H]1Cc1ccc(C(F)(F)F)cc1 [PP0427] ([NMeL]I[NEtG][Sar][NPrPhe(4-CF3)][Sar][hPhe(3-Cl-4-CF3)][Hyp](Et)[Ac5c][NMeGly(cPent)][NMeD]-NMe2; lactam N-11) | 2.2 nM |  |  | B (a compound having 3 or more and less than 10 is denoted as B) | C (A compound having a KD ratio of 0.1 or more and less than 3 is denoted as C) | 
CCO[C@@H]1C[C@H]2C(=O)NC3(CCC3)C(=O)N(C)[C@@H](C3CCCC3)C(=O)N(C)[C@H](C(=O)N(C)C)CC(=O)N(C)[C@@H](CC)C(=O)N[C@@H]([C@@H](C)CC)C(=O)N3CCSC[C@H]3C(=O)N(C)[C@H]3C/C=C\CCN(C3=O)[C@@H](Cc3ccc(C(F)(F)F)cc3)C(=O)N(C)CC(=O)N[C@@H](CCc3cc(F)c(C(F)(F)F)c(F)c3)C(=O)N2C1 [PP1060] | 307 nM | A (a compound having 10 or more and less than 20 is denoted as A) | A (a compound having 10 or more and less than 20 is denoted as A) |  |  | 
CCO[C@@H]1C[C@H]2C(=O)NC3(CC(C)(C)C3)C(=O)N(C)[C@@H](C(CC)CC)C(=O)N(C)[C@H](C(=O)N(C)C)CC(=O)N(C)[C@@H](CC3CC3)C(=O)N[C@@H]([C@@H](C)CC)C(=O)N(C)CC(=O)N(C)[C@H]3C/C=C\CCN(C3=O)[C@@H](Cc3ccc(C)cc3)C(=O)N(C)CC(=O)N[C@@H](CCc3cc(F)c(C(F)(F)F)c(F)c3)C(=O)N2C1 [PP2137] | 16.8 nM |  |  | A (a compound having 10 or more and less than 20 is denoted as A) | A (a compound having 10 or more and less than 20 is denoted as A) | 
CCC[C@H]1C(=O)N[C@@H]([C@@H](C)CC)C(=O)N(C)CC(=O)N(C)[C@H]2C/C=C\CCN(C2=O)[C@@H](Cc2ccc(C(F)(F)F)cc2)C(=O)N(C)CC(=O)N[C@@H](CCc2cc(F)c(C(F)(F)F)c(F)c2)C(=O)N2C[C@H](OCC)C[C@H]2C(=O)NC2(CCC2)C(=O)N(C)[C@@H](C2CCCC2)C(=O)N(C)[C@H](C(=O)N(CC)CC)CC(=O)N1C [PP1310] | 4.5 nM |  |  |  |  | NRAS /KRAS ([2]; ratio of KD with respect to GDP-bound NRAS wild-type protein to KD with respect to KRAS): AA (a compound having 20 or more is denoted as AA); HRAS /KRAS (HRAS wild-type protein; ratio of KD with respect to HRAS wild-type protein to KD with respect to KRAS): A (a compound having 10 or more and less than 20 is denoted as A)
CCCN1C(=O)[C@@H]2CCN2C(=O)CN(C)C(=O)[C@H]([C@@H](C)CC)NC(=O)[C@H](CC(C)C)N(C)C(=O)C[C@@H](C(=O)N2CCOCC2)N(C)C(=O)[C@H](C2CCCC2)N(C)C(=O)[C@](C)(CC2CCCCC2)NC(=O)[C@@H]2CCCN2C(=O)[C@H](CCc2cc(F)c(C(F)(F)F)c(F)c2)NC(=O)CN(C)C(=O)[C@@H]1Cc1ccc(C(F)(F)F)cc1 [PP0796] ([NMeL]I[Sar][Aze][NPrPhe(4-CF3)][Sar][hPhe(3,5-F2-4-CF3)]P[αMeCha][NMeGly(cPent)][NMeD]-Morpholide; lactam N-11) | 438 nM | C (A compound having a KD ratio of 0.1 or more and less than 3 is denoted as C) | B (a compound having 3 or more and less than 10 is denoted as B) |  |  | 
CCCN1C(=O)CN(C)C(=O)CN(C)C(=O)[C@H]([C@@H](C)CC)NC(=O)[C@@H]2CCCCCCC[C@@H](NC(=O)[C@@H]3C[C@@H](OCC)CN3C(=O)[C@H](CCc3cc(F)c(C(F)(F)F)c(F)c3)NC(=O)CN(C)C(=O)[C@@H]1Cc1ccc(C(F)(F)F)cc1)C(=O)N(C)[C@@H](C1CCCC1)C(=O)N(C)[C@H](C(=O)N(C)C)CC(=O)N2C [PP0925] | 91 nM | A (a compound having 10 or more and less than 20 is denoted as A) | B (a compound having 3 or more and less than 10 is denoted as B) |  |  | 
CC[C@H](C)[C@@H]1NC(=O)[C@H](CC)N(C)C(=O)C[C@@H](C(=O)N(C)C)N(C)C(=O)[C@H](C2CCCC2)N(C)C(=O)C2(CC(C)(C)C2)NC(=O)[C@@H]2C[C@H](C)CN2C(=O)[C@H](CCc2cc(F)c(C(F)(F)F)c(F)c2)NC(=O)CN(C)C(=O)[C@H](Cc2ccc(C)cc2)N2CC/C=C\C[C@@H](C2=O)N(C)C(=O)CN(C)C1=O [PP1856] | 1.4 nM |  |  |  |  | NRAS /KRAS [2, 7]: A (a compound having 10 or more and less than 20 is denoted as A); HRAS /KRAS (HRAS wild-type protein; [8]): A (a compound having 10 or more and less than 20 is denoted as A)
CC[C@H](C)[C@@H]1NC(=O)[C@H](CC(C)C)N(C)C(=O)C[C@@H](C(=O)N2CCOCC2)N(C)C(=O)[C@H](C2CCCC2)N(C)C(=O)C2(CCCC2)NC(=O)[C@@H]2CCCN2C(=O)[C@H](CCc2ccc(C(F)(F)F)c(Cl)c2)NC(=O)CN(CC)C(=O)[C@H](Cc2ccc(C)cc2)N(C)C(=O)CN(CC)C(=O)CN(C)C1=O [PP0029] ([NMeL]I[Sar][NEtG][NMePhe(4-Me)][NEtG][hPhe(3-Cl-4-CF3)]P[Ac5c][NMeGly(cPent)][NMeD]-Morpholide; lactam N-11) | 26.4 nM | C (A compound having a KD ratio of 0.1 or more and less than 3 is denoted as C) | C (A compound having a KD ratio of 0.1 or more and less than 3 is denoted as C) |  |  | 
CC[C@H](C)[C@@H]1NC(=O)[C@H](C2CC2)N(C)C(=O)C[C@@H](C(=O)N(C)CC)N(C)C(=O)[C@H](C2CCCC2)N(C)C(=O)C2(CCC2)NC(=O)[C@@H]2C[C@H](C)CN2C(=O)[C@H](CCc2ccc(C(F)(F)F)c(OC)c2)NC(=O)CN(C)C(=O)[C@H](Cc2ccc(C(F)(F)F)cc2)N2CC/C=C\C[C@@H](C2=O)N(C)C(=O)CN(C)C1=O [PP2069] | 27.4 nM |  |  | AA (a compound having 20 or more is denoted as AA) | A (a compound having 10 or more and less than 20 is denoted as A) | 
CCO[C@@H]1C[C@H]2C(=O)NC3(CCC3)C(=O)N(C)[C@@H](C3CCCC3)C(=O)N(C)[C@H](C(=O)N(C)C)CC(=O)N(C)[C@@H](Cc3cccs3)C(=O)N[C@@H]([C@@H](C)CC)C(=O)N(C)CC(=O)N(C)[C@H]3C/C=C\CCN(C3=O)[C@@H](Cc3ccc(C(F)(F)F)cc3)C(=O)N(C)CC(=O)N[C@@H](CCc3cc(F)c(C(F)(F)F)c(F)c3)C(=O)N2C1 [PP1123] | 13.4 nM | A (a compound having 10 or more and less than 20 is denoted as A) | B (a compound having 3 or more and less than 10 is denoted as B) |  |  | 
